From US11155567B2, “Sting agonist compounds and methods of use” (Mersana Therapeutics, Inc., priority 2019, dated 2021)

Target: T1, Human STING (Homo sapiens, UniProt Q86WV6, G230A/H232R/R293Q/R71H)
T1 construct: host or cells: THP1-Dual cells, digitonin-permeabilized
Assay: Activation of human STING signaling in permeabilized THP1 cells, IRF3 induction
Assay type: cell-based
Conditions: THP1-Dual cells permeabilized with digitonin buffer 30 minutes on ice, then 24 h in RPMI media
Procedure: To evaluate IRF3 reporter levels, cell culture supernatant (20 μl) from each incubated sample was added to QUANTI-Luc™ assay solution (Invivogen, 50 μl), and the luminescence was measured with a SpectraMax M3 spectrophotometer (Molecular Devices).
4×10^5 THP1-Dual™ cells (NF-κB-SEAP and IRF-Lucia luciferase Reporter Monocytes, Invivogen) were incubated with test Compounds in a 5-fold titration steps from […] in permeabilized buffer (50 mM HEPES pH 7.0, 100 mM KCl, 3 mM MgCl2, 85 mM sucrose, 0.2% BSA, 1 mM ATP, 0.1 mM GTP, 0.1 mM TTP, 1 μg/ml digitonin) for 30 minutes on ice. Cells were then washed and incubated in a fresh RPMI media with 10% FBS at 37° C. with 5% CO2 for 24 h. Cell culture supernatants from each sample were collected and NFkB and IRF3 were evaluated as above. Table 3 provides the results for IRF3 induction (“A” means <1 μM; “B” means ≥1 μM and <50 μM; “C” means ≥50 μM).

T1 sequence (Q86WV6 whole entry R71H/G230A/H232R/R293Q): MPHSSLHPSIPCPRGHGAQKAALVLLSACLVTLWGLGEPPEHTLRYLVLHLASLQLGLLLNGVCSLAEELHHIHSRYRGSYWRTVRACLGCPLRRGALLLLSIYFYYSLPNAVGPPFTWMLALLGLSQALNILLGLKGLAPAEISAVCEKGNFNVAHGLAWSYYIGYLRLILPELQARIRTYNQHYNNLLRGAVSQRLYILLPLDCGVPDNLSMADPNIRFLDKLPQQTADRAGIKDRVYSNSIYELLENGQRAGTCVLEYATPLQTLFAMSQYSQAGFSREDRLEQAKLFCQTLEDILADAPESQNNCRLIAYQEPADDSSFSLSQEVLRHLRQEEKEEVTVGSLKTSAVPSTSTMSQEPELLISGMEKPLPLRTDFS

Row | SMILES | EC50
1 | CCc1nc(C)n(C)c1C(=O)Nc1nc2cc(C(N)=O)cc(OCCCO)c2n1C/C=C/Cn1c(NC(=O)c2cc(C)nn2CC)nc2cc(C(N)=O)cc(OC)c21 [compound 41] | ≥ 50 µM
2 | CCc1nc(C)oc1C(=O)Nc1nc2cc(C(N)=O)cc(OCCCO)c2n1C/C=C/Cn1c(NC(=O)c2cc(C)nn2CC)nc2cc(C(N)=O)ccc21 [compound 51] | < 1 µM
3 | CCc1nc(C)sc1C(=O)Nc1nc2cc(C(N)=O)cc(OCCCO)c2n1C/C=C/Cn1c(NC(=O)c2cc(C)nn2CC)nc2cc(C(N)=O)ccc21 [compound 52] | < 1 µM
4 | CCc1ncoc1C(=O)/N=c1\sc2cc(C(N)=O)cc(OC)c2n1C/C=C/Cn1c(NC(=O)c2ocnc2CC)nc2cc(C(N)=O)cc(OCCCO)c21 [compound 64] | ≥ 50 µM
5 | CCn1nc(C)cc1C(=O)/N=c1\sc2cc(C(N)=O)cc(OC)c2n1C/C=C/Cn1c(NC(=O)c2cc(C)nn2CC)nc2cc(C(N)=O)cc(OCCCN)c21 [compound 67] | < 1 µM
6 | CCc1nc(C)oc1C(=O)/N=c1\sc2cc(C(N)=O)cc(OC)c2n1C/C=C/Cn1c(NC(=O)c2sc(C)nc2CC)nc2cc(C(N)=O)cc(OCCCO)c21 [compound 70] | ≥ 50 µM
7 | CCn1nc(C)cc1C(=O)/N=c1\sc2cc(C(N)=O)cc(OC)c2n1C/C=C/Cn1c(NC(=O)c2ncnn2C(C)C)nc2cc(C(N)=O)cc(OCCCO)c21 [compound 71] | 1 to 50 µM
8 | CCn1nc(C)cc1C(=O)/N=c1\sc2cc(C(N)=O)cc(OC)c2n1C/C=C/Cn1c(NC(=O)C2=C(C)OCC2)nc2cc(C(N)=O)cc(OCCCO)c21 [compound 75] | ≥ 50 µM
9 | CCc1nc(C)oc1C(=O)Nc1nc2cc(C(N)=O)cc(OCCCO)c2n1C/C=C/Cn1/c(=N/C(=O)c2sc(C)nc2CC)sc2cc(C(N)=O)cc(OC)c21 [compound 76] | < 1 µM
10 | CCn1nc(C)cc1C(=O)Nc1nc2cc(C(N)=O)cnc2n1C/C=C/Cn1c(NC(=O)c2cc(C)nn2CC)nc2cc(C(N)=O)cnc21 [compound 84] | < 1 µM
11 | CCc1nc(C)oc1C(=O)Nc1nc2cc(C(N)=O)cnc2n1C/C=C/Cn1c(NC(=O)c2oc(C)nc2CC)nc2cc(C(N)=O)cnc21 [compound 85] | 1 to 50 µM
12 | CCn1nc(C)cc1C(=O)Nc1nc2cc(C(N)=O)cnc2n1C/C=C/Cn1c(NC(=O)c2cc(C)nn2CC)nc2cc(C(N)=O)cc(Br)c21 [compound 89] | < 1 µM
13 | CCc1nc(C)oc1C(=O)Nc1nc2cc(C(N)=O)cnc2n1C/C=C/Cn1c(NC(=O)c2oc(C)nc2CC)nc2cc(C(N)=O)cc(Br)c21 [compound 90] | < 1 µM
14 | CCn1nc(C)cc1C(=O)Nc1nc2cc(C(N)=O)cnc2n1C/C=C/Cn1c(NC(=O)c2cc(C)nn2CC)nc2cc(C(N)=O)cc(OCCCO)c21 [compound 94] | < 1 µM
15 | CCc1nc(C)oc1C(=O)Nc1nc2cc(C(N)=O)cnc2n1C/C=C/Cn1c(NC(=O)c2oc(C)nc2CC)nc2cc(C(N)=O)cc(OCCCN)c21 [compound 96] | < 1 µM
16 | CCn1nc(C)cc1C(=O)/N=c1\sc2cc(C(N)=O)cnc2n1C/C=C/Cn1c(NC(=O)c2cc(C)nn2CC)nc2cc(C(N)=O)cc(OCCCO)c21 [compound 110] | < 1 µM
